Test results published in patent US5478728A, “Process for antibody combining site-catalyzed SYN elimination in the formation of a CIS olefin” (The Scripps Research Institute, priority 1994, dated 1995).
“Also recorded” adds a separate entry of the source.

Assays:
[1] = Background elimination and isomerization in the absence of antibody; type: physicochemical; details: for isomerization of olefinic product under background reaction conditions / elimination product formed in the absence of antibody: 15 percent aq DMSO, 100 mM CHES buffer; for isomerization of olefinic product under background reaction conditions: no antibody
Experimental: Reaction conditions: 15 percent aq DMSO, 100 mM CHES buffer, pH 9.0, 37° C.
(§1) Immunization with the KLH conjugate and generation of monoclonal antibodies were performed as described hereinafter. Twenty-six monoclonal antibodies specific for Compound 5 were assayed for catalysis. The rate of elimination of substrate Compound 1 to product Compounds 3 or 4 was assayed in the absence and presence of antibody at 37° C. Thus, a solution of antibody in 100 mM CHES buffer, pH 9.0 at 37° C., was treated with substrate Compound 1 in DMSO to provide a final solution containing […] in 15 percent aqueous DMSO, 100 mM CHES, pH 9.0. All reaction rates were determined by analytical reverse phase HPLC (Vydac-C18, 41 percent acetonitrile in H2 O/0.1 percent trifluoroacetic acid) by measuring product formation relative to 4-methyl-3-nitroanisole as a standard.

antibody 1D4 = test: Inhibition of 1D4 catalytic activity by hapten; type: biochemical, mouse; details: addition of hapten; substrate Compound 1
Experimental: as §1
The initial rate of syn elimination by 1D4, when measured as a function of substrate Compound 1 concentrations followed Michaelis-Menten kinetics.

Row | Compound | isomerization of olefinic product under background reaction conditions ([1]; pH 9.0, 37° C.) | elimination product formed in the absence of antibody ([1]; pH 9.0, 37° C.) | also measured
1 | C/C(=C\c1ccccc1)C(=O)c1ccccc1 [Compound 3] | No isomerization | – | –
2 | C/C(=C/c1ccccc1)C(=O)c1ccccc1 [Compound 4] | No isomerization | – | –
3 | C[C@@H](C(=O)c1ccccc1)[C@H](F)c1ccccc1 (relative stereo) [Compound 2] | – | eliminates entirely to the trans olefin Compound 3 | –
4 | N[C@@]1(C(=O)c2ccccc2)[C@@H]2C[C@@H](C[C@H]2OC(=O)CCC(=O)O)[C@@H]1c1ccccc1 (relative stereo) [Compound 5, (1R*,2S*,4R*,5S*,6S*)-6-Amino-6-benzoyl-5-phenylbicyclo[2.2.1]heptane-2-hemisuccinate] | – | – | inhibition of the catalytic activity of 1D4 (antibody 1D4): competitively inhibited
5 | C[C@@H](C(=O)c1ccccc1)[C@@H](F)c1ccccc1 (relative stereo) [Compound 1] | – | exclusively the trans olefin Compound 3; also recorded: only product Compound 3 was generated | first order rate constant of elimination to Compound 3 ([1]; absence of antibody, 15 percent aqueous DMSO, 100 mM CHES, pH 9.0, 37° C.): 0.000248 min⁻¹; formation of cis product Compound 4 in the absence of antibody ([1]; reaction conditions pH 9.0, 37° C.): immeasurably slow
